How the values were obtained:
Format in all cases: functional
Paramphistomum [1] = assay: Antihelmintic activity against rumen flukes assessed as mortality at 40 ug/ml after 1 hr relative to control
Paramphistomum [2] = assay: Antihelmintic activity against rumen flukes assessed as mortality at 40 ug/ml after 2 hrs relative to control
Paramphistomum [3] = assay: Antihelmintic activity against rumen flukes assessed as mortality at 40 ug/ml after 4 hrs relative to control
Paramphistomum [4] = assay: Antihelmintic activity against rumen flukes assessed as mortality at 40 ug/ml after 6 hrs relative to control
Paramphistomum [5] = assay: Antihelmintic activity against rumen flukes assessed as mortality at 80 ug/ml after 1 hr relative to control
Paramphistomum [6] = assay: Antihelmintic activity against rumen flukes assessed as mortality at 80 ug/ml after 2 hrs relative to control
Paramphistomum [7] = assay: Antihelmintic activity against rumen flukes assessed as mortality at 80 ug/ml after 4 hrs relative to control
Paramphistomum [8] = assay: Antihelmintic activity against rumen flukes assessed as mortality at 80 ug/ml after 6 hrs relative to control

SMILES | mortality at 40 µg/mL (Paramphistomum [1]) [%] | mortality at 40 µg/mL (Paramphistomum [2]) [%] | mortality at 40 µg/mL (Paramphistomum [3]) [%] | mortality at 40 µg/mL (Paramphistomum [4]) [%] | mortality at 80 µg/mL (Paramphistomum [5]) [%] | mortality at 80 µg/mL (Paramphistomum [6]) [%] | mortality at 80 µg/mL (Paramphistomum [7]) [%] | mortality at 80 µg/mL (Paramphistomum [8]) [%]
COC(=O)Nc1nc2ccc(OCC(=O)N/N=C/c3ccco3)cc2s1 | 10 | 20 | 30 | 40 | 30 | 40 | 60 | 70
COC(=O)Nc1nc2ccc(OCC(=O)NNS(=O)(=O)c3ccc(C)cc3)cc2s1 | 10 | 10 | 20 | 30 | 20 | 20 | 30 | 40
CC(=O)Nc1nc2ccc(OCC3=NN(C(C)=O)C(c4ccc([N+](=O)[O-])cc4)O3)cc2s1 (stereo not given) | 10 | 30 | 40 | 70 | 20 | 50 | 70 | 100
CC(=O)Nc1nc2ccc(OCC3=NN(C(C)=O)C(c4ccccc4)O3)cc2s1 (stereo not given) | 0 | 0 | 0 | 0 | 0 | 0 | 10 | 10
COC(=O)NNC(=O)COc1ccc2nc(NC(=O)OC)sc2c1 | 10 | 20 | 30 | 40 | 30 | 40 | 70 | 80
COC(=O)Nc1nc2ccc(OCC(=O)NNS(=O)(=O)c3ccccc3)cc2s1 | 10 | 10 | 20 | 30 | 20 | 30 | 40 | 50
CC(=O)Nc1nc2ccc(OCC3=NN(C(C)=O)C(c4ccc(Cl)cc4)O3)cc2s1 (stereo not given) | 20 | 40 | 50 | 60 | 20 | 50 | 80 | 100
COC(=O)Nc1nc2ccc(OCC(=O)N/N=C(\C)c3ccc(Br)cc3)cc2s1 (mixture of isomers) | 10 | 10 | 10 | 10 | 20 | 20 | 30 | 30
COC(=O)Nc1nc2ccc(OCC(=O)N/N=C(\C)c3ccccc3)cc2s1 (mixture of isomers) | 10 | 10 | 10 | 20 | 20 | 20 | 20 | 30
COC(=O)Nc1nc2ccc(OCC(=O)N/N=C/c3ccc(Cl)cc3)cc2s1 (mixture of isomers) | 0 | 0 | 10 | 20 | 20 | 30 | 50 | 60
COC(=O)Nc1nc2ccc(OCC(=O)N/N=C(\C)c3ccc(C)cc3)cc2s1 (mixture of isomers) | 10 | 10 | 10 | 10 | 20 | 20 | 20 | 20
COC(=O)Nc1nc2ccc(OCC(=O)N/N=C/c3ccc([N+](=O)[O-])cc3)cc2s1 (mixture of isomers) | 10 | 10 | 10 | 10 | 20 | 20 | 20 | 20
COC(=O)Nc1nc2ccc(OCC(=O)N/N=C/c3ccccc3OC(=O)OC)cc2s1 (mixture of isomers) | 10 | 10 | 10 | 10 | 10 | 20 | 20 | 20
COC(=O)Nc1nc2ccc(OCC(=O)N/N=C/c3ccccc3)cc2s1 (mixture of isomers) | 10 | 10 | 10 | 20 | 10 | 20 | 20 | 40
COC(=O)Nc1nc2ccc(OCC(=O)N/N=C(\C)c3ccc(Cl)cc3)cc2s1 (mixture of isomers) | 10 | 10 | 30 | 40 | 30 | 40 | 50 | 70
O=C(Nc1cc(Cl)cc(Cl)c1O)c1c(O)c(Cl)cc(Cl)c1Cl [OXYCLOZANIDE] | 30 | 70 | 100 |  | 50 | 100 |  | 

— ChEMBL document CHEMBL3739361, “Design, facile synthesis and anthelmintic activity of new O-substituted 6-methoxybenzothiazole-2-carbamates” (2015)
